Molecules are shown by their SMILES. Counter-ions that a name gives are not always drawn.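 Cells were grown in 96-well plates and exposed to each compound for 48 hours at five concentrations; endpoints were interpolated linearly between bracketing concentrations, or set to the highest concentration if not reached. At the TGI there is no net growth.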 *1 amine or outer side, *2 acyl side, *3 side chain or, on linkers, in order; H or OH if unused. Where a SMILES comes first, the peptide text is derived from it. [ ]: non-standard residue; d: D form. The star is where a group is joined. X31 = CC(=O)N(C)SCC(N[*:1])C(=O)[*:2]; X47 = CC(=O)N(C)SCC(N*)/C(O)=N\O; Cbz = O=C(OCc1ccccc1)*; Tfa = O=C(C(F)(F)F)*; Bn = c1ccc(C*)cc1; For = O=C*

Holding throughout (assay): DTP human tumour cell line panel, 48 h
Assay [1] relates to SW-620 colon.
Assay [2] has as its system COLO 205 colon.
The subject of assay [3] is HL-60(TB) leukemia.
Assay [4] deals with A498 renal.
For assay [5], the system named is ACHN renal.
Assay [6] has as its system KM12 colon.
In assay [7] the test system is A549 NSCLC.
In assay [8] the test system is SF-539 CNS.

In general, TGI refers to the concentration at which net growth stops. As to `COc1ccc(/C=C2\CCC(C)C3=C(c4ccc(OC)c(OC)c4)C(C#N)=C(N)OC32)cc1OC` (stereo not drawn), the total growth inhibition concentration (TGI) in assay [1] was greater than 100 µM; in assay [2], 7.74 µM; in assay [3] it was 7.75 µM; in assay [4], 51.9 µM; in assay [5] it was greater than 100 µM; in assay [6], 66.5 µM.

Consider `CS(=O)(=O)c1ccc(/C=N/NC(N)=S)cc1`, for which the concentration for total growth inhibition (TGI) in assay [1], in assay [2], in assay [3], in assay [4], in assay [7] and in assay [5] was greater than 100 µM in each case. The total growth inhibition concentration (TGI) in assay [6] is greater than 100 µM.

Turning to `O=C(O)c1cc2ccccc2c(N=Nc2ccccc2)c1O`, the TGI in assay [1] is greater than 100 µM; in assay [2] it was 47.2 µM; in assay [3], 33.1 µM; in assay [4] it was greater than 100 µM; in assay [7] it was 40.1 µM; in assay [5] it was 69.5 µM. In assay [6], this compound came in with a total growth inhibition concentration (TGI) of 36.4 µM.

Consider `ClCCCN(CCCCl)c1ccc(C=Nc2cccc(Cl)c2)cc1`, for which the total growth inhibition concentration (TGI) in assay [1] is greater than 100 µM; in assay [2] it was greater than 100 µM; in assay [8] it was greater than 100 µM; in assay [3] it was 58.4 µM; in assay [7], greater than 79.7 µM; in assay [5], greater than 100 µM. The TGI in assay [6] is greater than 80.6 µM.

Consider `CCC1=NC(N/N=C/c2ccco2)=N/C1=C\c1ccccc1O`, for which the concentration for total growth inhibition (TGI) in assay [1] was greater than 100 µM; in assay [2] it was greater than 100 µM; in assay [3] it was 60.6 µM; in assay [4], greater than 100 µM; in assay [7], greater than 100 µM; in assay [5], greater than 100 µM. Besides, in assay [6], the total growth inhibition concentration (TGI) is greater than 100 µM.

Regarding `CC(=O)N(C)SCC(NC(=O)C(Cc1ccccc1)NC(=O)OCc1ccccc1)C(=O)NC(Cc1ccccc1)C(=O)NC(Cc1cn(C=O)c2ccccc12)C(=O)NC(CCCCNC(=O)OCc1ccccc1)C(=O)NC(C(=O)NC(CSN(C)C(C)=O)/C(O)=N\O)C(C)OCc1ccccc1` (stereo not drawn) (Cbz-F[X31]FW(For)K(Cbz)T(Bn)-X47; configuration not given here), the total growth inhibition concentration (TGI) in assay [1], in assay [2], in assay [8], in assay [3], in assay [7] and in assay [5] was greater than 100 µM each time. The total growth inhibition concentration (TGI) in assay [6] was greater than 100 µM.

In the case of `COc1cc(C=O)ccc1Oc1nnnn1-c1ccccc1`, the total growth inhibition concentration (TGI) in assay [1], in assay [2], in assay [7] and in assay [6] was greater than 100 µM in each case.

Consider `O=C(O)CC(NC(=O)C(F)(F)F)C(=O)NC(Cc1ccc(O)cc1)C(=O)O` (stereo not drawn) (Tfa-Asp-Tyr-OH; configuration not given here), for which the TGI in assay [1], in assay [2], in assay [8], in assay [7], in assay [5] and in assay [6] was greater than 50 µM each time.

For `N#CN=C(N)c1sc2nc3c(c(-c4ccc(Br)cc4)c2c1N)CCCC3`, the TGI in assay [1] was greater than 100 µM; in assay [2] it was 44.8 µM; in assay [8], greater than 100 µM; in assay [4] it was 43.1 µM; in assay [7], greater than 100 µM; in assay [5] it was 57 µM. In assay [6], the TGI came to 59.7 µM.

Consider `COc1cc(C2SC(N)=Nc3c2c(C)nn3C(=O)c2ccccc2O)cc(OC)c1OC` (stereo not drawn), for which the TGI in assay [1], in assay [2], in assay [8], in assay [4], in assay [7] and in assay [5] was greater than 10 µM in each case. In assay [6], this compound showed a TGI greater than 10 µM.

Regarding `C=C(C)C(=O)O[C@H]1C/C(CO)=C/CCC(=C)C(OC(C)=O)[C@H]2OC(=O)C(=C)[C@H]12` (stereo partly drawn), the concentration for total growth inhibition (TGI) in assay [1] came to 74.2 µM; in assay [2], 15.7 µM; in assay [8], 33.6 µM; in assay [4] it was 43 µM; in assay [7], 55.8 µM; in assay [5] it was 22.9 µM. The compound further came in with a TGI in assay [6] of 33.3 µM.

In the case of `CC[C@@]1(N(C)C)C(=O)OCc2c1cc1n(c2=O)Cc2cc3ccccc3nc2-1`, the TGI in assay [1] is greater than 100 µM; in assay [2] it was greater than 100 µM; in assay [4] it was greater than 100 µM; in assay [7], greater than 100 µM; in assay [5], 42.2 µM; in assay [6], greater than 100 µM.

`Oc1ccc(-c2csc(NNC3=NC/C(=C/c4ccc5c(c4)OCO5)S3)n2)cc1O`: the TGI in assay [1], in assay [2], in assay [8], in assay [7], in assay [5] and in assay [6] was greater than 100 µM in each case.

Turning to `CC(=O)ON(C(C)=O)c1ccc(-c2nc3ccccc3s2)cc1`, the total growth inhibition concentration (TGI) in assay [1] was greater than 59.9 µM; in assay [2], greater than 53.7 µM; in assay [8] it was 29.4 µM; in assay [4] it was greater than 67.2 µM; in assay [7] it was greater than 79 µM; in assay [5], 50.4 µM. The compound also came in with a TGI in assay [6] of 33.2 µM.

Consider `CC(=O)[C@@H]1[C@@H](OC(=O)CCC(C)COC2OC(CO)C(O)C(O)C2O)C[C@H]2[C@@H]3CC=C4C[C@@H](OC5OC(CO)C(OC6OC(C)C(O)C(O)C6O)C(O)C5OC5OC(C)C(O)C(O)C5O)CC[C@]4(C)[C@H]3CC[C@]12C` (stereo partly drawn), for which the concentration for total growth inhibition (TGI) in assay [1], in assay [2], in assay [4], in assay [7], in assay [5] and in assay [6] was greater than 100 µM each time.

Consider `O=C(OCc1ccccc1CN1CCOCC1)c1cccc(Br)c1`, for which the concentration for total growth inhibition (TGI) in assay [1], in assay [2], in assay [8], in assay [4], in assay [7] and in assay [5] was greater than 100 µM each time.

Turning to `COc1ccc2nc3cc(Cl)ccc3c(NCCCN(Cc3cc(OC)c(OC)c(OC)c3)Cc3cc(OC)c(OC)c(OC)c3)c2c1`, the total growth inhibition concentration (TGI) in assay [1] was 3.22 µM; in assay [2], 23.5 µM; in assay [8], 10.5 µM; in assay [7], 30.7 µM; in assay [5] it was 27.2 µM; in assay [6], 28.3 µM.

On to `CC(C)(C)OC(=O)NCCCCC(N)C(N)=O` (stereo not drawn), for which the TGI in assay [1], in assay [2], in assay [8], in assay [4], in assay [7] and in assay [5] was greater than 100 µM each time. This compound also displayed a total growth inhibition concentration (TGI) in assay [6] greater than 100 µM.

As to `COc1cc2c[n+](C)c3c4cc(OC)c(OC)cc4c(OC)cc3c2cc1OC`, the TGI in assay [1] is greater than 100 µM; in assay [2], 4.41 µM; in assay [8], greater than 100 µM; in assay [4], greater than 100 µM; in assay [7], greater than 100 µM; in assay [5], greater than 100 µM. In assay [6], the concentration for total growth inhibition (TGI) was greater than 67.1 µM.

Take `COc1ccc(C2=CC(c3ccccc3)n3nnnc3N2)cc1` (stereo not drawn): the concentration for total growth inhibition (TGI) in assay [1], in assay [2], in assay [8], in assay [3], in assay [7] and in assay [5] was greater than 100 µM in each case. Besides, the TGI in assay [6] is greater than 100 µM.

`O=C1/C(=C/c2ccccc2)CCCC1CN1CCCCC1` (stereo not drawn): the TGI in assay [1] was 2.64 µM; in assay [2], 10.4 µM; in assay [8], 11.7 µM; in assay [4], 30.4 µM; in assay [7] it was 34.9 µM; in assay [5], 11.8 µM. In assay [6], this compound showed a TGI of 2.78 µM.

Turning to `Nc1sc2c(c1C(=O)c1ccc(Cl)c(Cl)c1)CCCC2`, the TGI in assay [1] is greater than 100 µM; in assay [2], greater than 100 µM; in assay [8], greater than 100 µM; in assay [3] it was 65.3 µM; in assay [7], greater than 100 µM; in assay [5], greater than 100 µM. This compound yielded a TGI in assay [6] greater than 100 µM.

Consider `OCC1OC(n2nc(-c3ccccc3)nc2-c2cnccn2)C(O)C(O)C1O` (stereo not drawn), for which the concentration for total growth inhibition (TGI) in assay [1], in assay [2], in assay [8], in assay [3], in assay [7] and in assay [6] was greater than 100 µM each time.

With `Cc1cc(N(CCC#N)CCC#N)ccc1/C(N=Nc1ccc(Cl)cc1)=N\NC(=O)c1cc(Cl)ccc1O`, the total growth inhibition concentration (TGI) in assay [2] was greater than 100 µM; in assay [8] it was 73.6 µM; in assay [4] it was greater than 100 µM; in assay [7] it was greater than 100 µM; in assay [5], greater than 100 µM; in assay [6], greater than 100 µM.

Turning to `C=CCn1c(=O)c2ccccc2[n+]2c(C)c(C(=O)OCC)sc12`, the TGI in assay [1], in assay [2], in assay [8], in assay [3], in assay [7] and in assay [5] was greater than 100 µM in each case. Also, the TGI in assay [6] is greater than 100 µM.

(Values after PubChem BioAssay (NCI).)
